Test results as given in patent publication US20180282279A1, “Pantothenamide Analogues” (Radboud Universitair Medisch Centrum, priority 2014, published 2018).
Converted amounts (≈) assume the structure as drawn. Read-outs that look alike come from different tables or passages of the source.

Tests used:
[1] = test system: Staphylococcus epidermidis; assay: Bacterial growth assay and MIC determination, S. epidermidis; type: cell-based; details: Staphylococcus epidermidis
Description: (§1) Strains of Escherichia coli, Staphylococcus aureus and Staphylococcus epidermidis, were grown overnight in 1% Bacto tryptone medium (BD, Sparks, Md.). Streptococcus pyogenes was grown overnight in Bacto Todd Hewitt Broth medium (BD, Sparks, Md.). Cultures were then diluted 1:1,000 in fresh assay medium supplemented with or without 20% fetal bovine serum (FBS; HyClone, Celbio, Logan, Utah) and added to 96-well sterile enzyme-linked immunosorbent assay (ELISA) plates (100 μl per well). The compounds to be tested were diluted in the medium without serum and added to the bacteria (100 μl per well). Plates were incubated at 37° C., and bacterial growth was monitored over time by reading the optical density at 490 nm using a microplate reader (model 450; Bio-Rad Laboratories Inc., Hercules, Calif.). Streptococcus pneumoniae strains were grown to mid-log phase (OD620 of 0.3) and stored in 15% glycerol at […] till further use. Minimal inhibitory concentration (MIC) of antibiotics was determined according to standard procedures. Bacteria were diluted 10-fold in Mueller-Hinton medium (BD, Sparks, Md.) and added to 96-well sterile ELISA plates (150 μl per well). The compounds to be tested were diluted in the medium without serum and added to the bacteria (150 μl per well). Plates were incubated overnight at 37° C. in 5% CO2. The MIC was defined as the lowest concentration of compound at which no growth was visible with the naked eye.

[2] = Pharmacokinetic study in rats; type: in vivo; details: rat, blood, 50 mg/kg in saline, oral administration
Description: To address the question if increased stability would also lead to improved bioavailability in vivo, a pharmacokinetic study was performed. Briefly, the pantothenamides N5-Pan (an antibacterial compound) and CXP18.3-002 (an antimalarial compound), and their corresponding inverted amides CXP18.6-013 and CXP18.6-006 were administered to rats at 50 mg/kg dissolved in saline. Blood samples were collected from 3 rats before the experiment and at 0.25, 0.5, 1, 2, 4, 6, 8, 12 and 24 h. The concentrations of the compounds were analyzed by LC-MS/MS (AB Sciex API-4000 system). Data were analyzed by the Non-compartmental analysis tool of Phoenix WinNonlin (Version 6.3).

[3] = test system: Escherichia coli; assay: Bacterial growth assay and MIC determination, E. coli; type: cell-based; details: Escherichia coli, serum −, read-out: MIC
Description: as §1

[4] = test system: transgenic P. falciparum NF54 strain that expresses a luciferase reporter gene, in Anopheles stephensi mosquitoes; assay: Standard Membrane Feeding Assay (SMFA), luciferase reporter; type: in vivo, Plasmodium falciparum; details: for IC50: indirect mode of the SMFA
Description: To assess the effect of a reduction in gametocyte viability and or capacity to form a gamete on actual transmission of the parasites, Standard Membrane Feeding Assays (SMFA) were performed using a transgenic P. falciparum NF54 strain that expresses a luciferase reporter gene from a hsp70 promoter. Parasite cultures showing ˜3% mature gametocytes were checked for the ability to show exflagellation after addition of xanthurenic acid to a final concentration of 40 μM. Infectivity of cultures showing positive exflagellation was tested in a ‘prefeed’ experiment as described previously (Antimicrob Agents Chemother, 2012. 56(7): p. 3544-8). Cultures showing development of retorts and ookinetes in the mosquito midgut were selected for testing of compounds. In the indirect mode of the assay, gametocytes were pre-incubated with compound prior to mosquito feeding. To this end, 40 μl compound diluted in parasite culture medium was added to 360 μl of parasite culture and incubated for 24 hrs at 37° C. in Eppendorf tubes (0.1% DMSO final concentration). Hereafter, 300 μl was added to 180 μl of packed red blood cells and centrifuged for 20 seconds at 10,000 g. After carefully aspirating the supernatant, 200 μl of human serum type A was added to the pellet. Finally, 300 μl was immediately injected into an individual membrane-covered minifeeder, where 50 Anopheles stephensi mosquitoes of 1-to-5-days old were allowed to feed for 10 minutes and non-fed mosquitoes were removed from the cage. Eight days after feeding, 20 mosquitoes were sacrificed and parasite luciferase activity was measured as described previously (Stone, J Infect Dis. 2014 in press). For the direct SMFA, 300 μl parasite culture was added to 180 μl red blood cells, centrifuged for 20 seconds at 10,000 g and the supernatant was carefully aspirated. Meanwhile, 10 μl of compound diluted in incomplete medium was added to 490 μl human serum type A (0.1% DMSO final). 200 μl of this compound containing human serum was added to the pellet, which was subsequently used for the SMFA as described above. For dose response analyses, compounds were diluted in DMSO with subsequent dilution in culture medium to a final DMSO concentration of 0.1%. Controls included vehicle (0.1% DMSO) and DHA at its approximate IC90 (10 μM). Data were analyzed by logistic regression using the formula: Y=Bottom+(Top−Bottom)/(1+10̂((Log IC50−X)*HillSlope)) and a least squares method to find the best fit.

[5] = test system: Streptococcus pyogenes; assay: Bacterial growth assay and MIC determination, S. pyogenes; type: cell-based; details: Streptococcus pyogenes; S. pyogenes, serum −; read-out: MIC
Description: as §1

[6] = test system: Plasmodium berghei strain 676c11 (PbGFP-Luc); assay: In vivo rodent malaria model; details: female Wistar rats, 100 mg/kg orally three times a day, day 5-8
Source text: Female mice (C57 Black 6, 9-10 weeks of age at the start of the experiment) and female rats (Wistar, 150-200 grams at the beginning of the experiment) were housed under standard conditions and experiments were approved by the institutional ethical committee on animal care and experimentation of Radboud University Medical Centre (Nijmegen).
To test our compounds in an in vivo malaria model we used a well described rodent malaria model (Zuckerman and Yoeli, J Infect Dis. 94, 225-36). First, donor mice were infected by 0.2 ml cryopreserved infected blood stocks containing the transgenic Plasmodium berghei strain 676c11 (PbGFP-Luc). After four days the mice were sacrificed and their blood was collected. The parasitemia in the blood from the mice was calculated as percentage of infected red blood cells (RBC) by Giemsa-stained blood smears. Infected blood was diluted to 5×10^7 parasites per ml and 0.2 ml was i.p. injected in rats (inoculation of 10′ parasites per rat). Treatment with chloroquine (6 mg/kg), CXP18.6-017 (100 mg/kg) and CXP18.6-052 (100 mg/kg) started 5 days post inoculation and where given orally three times a day until day eight. From day 5 blood samples were collected and parasitemia was determined by analysis of Giemsa-stained blood smears. The infection and treatment regimes were well tolerated by the animals.

[7] = test system: S. aureus (SA), S. epidermidis (SE), S. pyogenes (SP), S. pneumoniae (SPn); assay: MIC for most sensitive bacterial species (panel); type: cell-based; details: Table 1, no species named, read-out: MIC (μg/ml) for most sensitive bacterial species
Description: as §1

[8] = Table 1, most sensitive species S. epidermidis (SE), read-out: MIC (μg/ml) for most sensitive bacterial species
[9] = 24 hrs pre-incubation, read-out: IC50 on the average luciferase intensity
[10] = read-out: IC50 on parasite prevalence (percentage of infected mosquitoes)

CC(C)(CO)[C@@H](O)C(=O)NCCNC(=O)CCc1ccccc1 [CXP18.6-006] gave an MIC [1, 8] of 16 µg/mL (≈ 49.6 µM), an AUC(0-inf) [2] of 6620 ng·h/mL and a Cmax [2] of 3360 ng/mL. For the same molecule, the Tmax [2] was 0.33 h and the half-life ([2]; elimination phase) was 3.6 h.
In the case of CC(C)(CO)[C@@H](O)C(=O)NCCNC(=O)CCc1ccccc1F [CXP18.6-017], the MIC [3] is reported as > 256 µg/mL, the “inhibitory effect in the indirect mode compared with the direct mode” value ([4]; gametocytes pre-exposed prior to mosquito feeding) is reported as “stronger” and the “luciferase intensity in the direct mode of the assay” value ([4]; in comparison with the DMSO control) is reported as “reduced luciferase intensity”. The IC50 [4, 9] was 20 nM, the IC50 [4, 10] was 178 nM and the MIC [5] was 8 µg/mL (≈ 23.5 µM). The parasitemia [6] was “reduced parasitemia with similar kinetics as found for chloroquine”, the MIC ([1]; S. epidermidis, serum −, read-out: MIC) was 32 µg/mL (≈ 94 µM) and the MIC [1, 8] was 2 µg/mL (≈ 5.88 µM).
For Cc1ccc(CCC(=O)NCCNC(=O)[C@H](O)C(C)(C)CO)cc1 [CXP18.6-026], the MIC ([7]; tested for SA, SE, SP and SPn) was > 32 µg/mL, the IC50 [4, 9] was 107 nM and the IC50 [4, 10] was 370 nM.
With CC(C)(CO)[C@@H](O)C(=O)NCCNC(=O)CCc1cccnc1 [CXP18.6-052] the MIC ([7]; Streptococcus pneumoniae, marked *: not tested for S. pneumoniae) was > 32 µg/mL and the parasitemia [6] was “significant, albeit partial, reduction of parasitemia”.
